By Ki is commonly meant a measure of affinity in units of concentration, obtained from inhibition or displacement.

The assay deals with Recombinant Human Poly(ADP-Ribose) Polymerase (PARP), PARP-1 (Homo sapiens (Human), UniProt P09874). The conditions noted are these: read-out: PARP-1 (Ki); Table 1; text calls the values EC50s.
Recombinant Human Poly(ADP-Ribose) Polymerase (PARP), PARP-1, sequence (P09874 whole entry): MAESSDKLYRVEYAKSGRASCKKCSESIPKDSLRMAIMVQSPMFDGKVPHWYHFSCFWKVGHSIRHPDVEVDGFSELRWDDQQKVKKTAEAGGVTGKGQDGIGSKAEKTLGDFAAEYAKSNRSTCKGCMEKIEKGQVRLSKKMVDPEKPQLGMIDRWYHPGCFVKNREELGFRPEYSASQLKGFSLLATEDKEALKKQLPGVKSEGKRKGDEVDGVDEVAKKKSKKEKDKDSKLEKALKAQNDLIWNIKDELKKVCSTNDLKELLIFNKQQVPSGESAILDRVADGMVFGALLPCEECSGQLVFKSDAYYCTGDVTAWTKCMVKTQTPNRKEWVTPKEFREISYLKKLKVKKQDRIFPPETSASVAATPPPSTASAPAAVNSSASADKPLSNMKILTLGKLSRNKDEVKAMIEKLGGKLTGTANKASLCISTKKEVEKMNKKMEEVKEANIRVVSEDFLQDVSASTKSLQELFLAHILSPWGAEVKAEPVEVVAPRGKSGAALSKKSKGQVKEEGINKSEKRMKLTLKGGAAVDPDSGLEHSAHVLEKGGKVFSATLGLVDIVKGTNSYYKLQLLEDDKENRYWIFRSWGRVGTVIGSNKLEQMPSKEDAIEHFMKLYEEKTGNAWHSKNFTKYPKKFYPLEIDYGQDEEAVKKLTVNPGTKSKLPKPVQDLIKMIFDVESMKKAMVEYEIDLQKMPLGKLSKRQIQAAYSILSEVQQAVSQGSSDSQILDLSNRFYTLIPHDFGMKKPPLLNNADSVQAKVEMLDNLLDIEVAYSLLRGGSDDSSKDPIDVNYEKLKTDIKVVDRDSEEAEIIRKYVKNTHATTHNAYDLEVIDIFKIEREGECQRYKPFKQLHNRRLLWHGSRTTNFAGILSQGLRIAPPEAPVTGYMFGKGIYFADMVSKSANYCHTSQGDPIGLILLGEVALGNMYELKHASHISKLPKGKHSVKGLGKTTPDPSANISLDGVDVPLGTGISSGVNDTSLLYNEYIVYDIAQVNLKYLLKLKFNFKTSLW

As to `O=C(c1cc(Cc2n[nH]c(=O)c3c2NCCC3)ccc1F)N1CCN(c2cccc(F)c2)CC1` [Example 547, 8-(4-fluoro-3-{[4-(3-fluorophenyl)piperazin-1-yl]carbonyl}benzyl)-2,3,4,6-tetrahydropyrido[2,3-d]pyridazin-5(1H)-one], the Ki turned out to be 2.3 nM.

For the compound `O=C(c1cc(Cc2n[nH]c(=O)c3c2NCCC3)ccc1F)N1CCN(c2ccc(F)cc2)CC1` [Example 548, 8-(4-fluoro-3-{[4-(4-fluorophenyl)piperazin-1-yl]carbonyl}benzyl)-2,3,4,6-tetrahydropyrido[2,3-d]pyridazin-5(1H)-one], the Ki came out at 2 nM.

As to `O=C(c1cc(Cc2n[nH]c(=O)c3c2NCCC3)ccc1F)N1CCN(c2ccccc2F)CC1` [Example 549, 8-(4-fluoro-3-{[4-(2-fluorophenyl)piperazin-1-yl]carbonyl}benzyl)-2,3,4,6-tetrahydropyrido[2,3-d]pyridazin-5(1H)-one], the Ki came to 1 nM.

As to `O=C(c1ccco1)N1CCN(C(=O)c2cc(Cc3n[nH]c(=O)c4c3NCCC4)ccc2F)CC1` [Example 553, 8-(4-fluoro-3-{[4-(2-furoyl)piperazin-1-yl]carbonyl}benzyl)-2,3,4,6-tetrahydropyrido[2,3-d]pyridazin-5(1H)-one], the Ki amounted to 0.8 nM.

Take `O=C(c1cc(Cc2n[nH]c(=O)c3c2NCCC3)ccc1F)N1CCN(c2ccccc2Cl)CC1` [Example 554, 8-(3-{[4-(2-chlorophenyl)piperazin-1-yl]carbonyl}-4-fluorobenzyl)-2,3,4,6-tetrahydropyrido[2,3-d]pyridazin-5(1H)-one]: the Ki was determined as 2.1 nM.

In the case of `CCN(CC)C(=O)N1CCN(C(=O)c2cc(Cc3n[nH]c(=O)c4c3NCCC4)ccc2F)CC1` [Example 557, N,N-diethyl-4-{2-fluoro-5-[(5-oxo-1,2,3,4,5,6-hexahydropyrido[2,3-d]pyridazin-8-yl)methyl]benzoyl}piperazine-1-carboxamide], the Ki stood at 1.1 nM.

In the case of `CN(C)C(=O)CN1CCN(C(=O)c2cc(Cc3n[nH]c(=O)c4c3NCCC4)ccc2F)CC1` [Example 560, 2-(4-{2-fluoro-5-[(5-oxo-1,2,3,4,5,6-hexahydropyrido[2,3-d]pyridazin-8-yl)methyl]benzoyl}piperazin-1-yl)-N,N-dimethylacetamide], the Ki came to 2 nM.

As to `O=C(c1cc(Cc2n[nH]c(=O)c3c2NCCC3)ccc1F)N1CCN(CCOc2ccccc2)CC1` [Example 561, 8-(4-fluoro-3-{[4-(2-phenoxyethyl)piperazin-1-yl]carbonyl}benzyl)-2,3,4,6-tetrahydropyrido[2,3-d]pyridazin-5(1H)-one], the Ki was 3 nM.

As for `O=C(c1cc(Cc2n[nH]c(=O)c3c2NCCC3)ccc1F)N1CCN(S(=O)(=O)c2ccccc2)CC1` [Example 562, 8-(4-fluoro-3-{[4-(phenylsulfonyl)piperazin-1-yl]carbonyl}benzyl)-2,3,4,6-tetrahydropyrido[2,3-d]pyridazin-5(1H)-one], the Ki amounted to 0.9 nM.

Regarding `CC(C)C(=O)N1CCN(C(=O)c2cc(Cc3n[nH]c(=O)c4c3NCCC4)ccc2F)CC1` [Example 565, 8-{4-fluoro-3-[(4-isobutyrylpiperazin-1-yl)carbonyl]benzyl}-2,3,4,6-tetrahydropyrido[2,3-d]pyridazin-5(1H)-one], the Ki stood at 1.4 nM.

`O=C(c1cc(Cc2n[nH]c(=O)c3c2NCCC3)ccc1F)N1CCN(CCN2CCOCC2)CC1` [Example 566, 8-(4-fluoro-3-{[4-(2-morpholin-4-ylethyl)piperazin-1-yl]carbonyl}benzyl)-2,3,4,6-tetrahydropyrido[2,3-d]pyridazin-5(1H)-one]: the Ki is 4 nM.

In the case of `O=C(c1cc(Cc2n[nH]c(=O)c3c2NCCC3)ccc1F)N1CCN(C(=O)C2CCCCC2)CC1` [Example 568, 8-(3-{[4-(cyclohexylcarbonyl)piperazin-1-yl]carbonyl}-4-fluorobenzyl)-2,3,4,6-tetrahydropyrido[2,3-d]pyridazin-5(1H)-one], the inhibition constant (Ki) turned out to be 1.1 nM.

Regarding `O=C(c1cc(Cc2n[nH]c(=O)c3c2NCCC3)ccc1F)N1CCN(C(=O)C2CCCO2)CC1` (centres unmarked) [Example 569, 8-(4-fluoro-3-{[4-(tetrahydrofuran-2-ylcarbonyl)piperazin-1-yl]carbonyl}benzyl)-2,3,4,6-tetrahydropyrido[2,3-d]pyridazin-5(1H)-one], the Ki came to 1.2 nM.

`O=C(c1cc(Cc2n[nH]c(=O)c3c2NCCC3)ccc1F)N1CCN(CCN2CCCCC2)CC1` [Example 570, 8-(4-fluoro-3-{[4-(2-piperidin-1-ylethyl)piperazin-1-yl]carbonyl}benzyl)-2,3,4,6-tetrahydropyrido[2,3-d]pyridazin-5(1H)-one]: the Ki turned out to be 8 nM.

For the compound `O=C(c1cc(Cc2n[nH]c(=O)c3c2CCCC3)ccc1F)N1CCN(CCN2CCOCC2)CC1` [Example 571, 4-(4-fluoro-3-{[4-(2-morpholin-4-ylethyl)piperazin-1-yl]carbonyl}benzyl)-5,6,7,8-tetrahydrophthalazin-1(2H)-one], the Ki amounted to 4 nM.

Turning to `O=C(c1cc(Cc2n[nH]c(=O)c3c2NCCC3)ccc1F)N1CCC(O)CC1` [Example 572, 8-{4-fluoro-3-[(4-hydroxypiperidin-1-yl)carbonyl]benzyl}-2,3,4,6-tetrahydropyrido[2,3-d]pyridazin-5(1H)-one], the Ki stood at 3 nM.

Turning to `Cc1cncc(N2CCN(C(=O)c3cc(Cc4n[nH]c(=O)c5c4NCCC5)ccc3F)CC2)n1` [Example 573, 8-(4-fluoro-3-{[4-(6-methylpyrazin-2-yl)piperazin-1-yl]carbonyl}benzyl)-2,3,4,6-tetrahydropyrido[2,3-d]pyridazin-5(1H)-one], the Ki came out at 0.9 nM.

For `O=C(c1cc(Cc2n[nH]c(=O)c3c2CCCC3)ccc1F)N1CCN(S(=O)(=O)c2ccccc2)CC1` [Example 574, 4-(4-fluoro-3-{[4-(phenylsulfonyl)piperazin-1-yl]carbonyl}benzyl)-5,6,7,8-tetrahydrophthalazin-1(2H)-one], the Ki turned out to be 1.3 nM.

Consider `O=C(c1cc(Cc2n[nH]c(=O)c3c2CCCC3)ccc1F)N1CCN(C2CCCC2)CC1` [Example 575, 4-{3-[(4-cyclopentylpiperazin-1-yl)carbonyl]-4-fluorobenzyl}-5,6,7,8-tetrahydrophthalazin-1(2H)-one], for which the Ki came out at 2 nM.

On to `O=C(c1cc(Cc2n[nH]c(=O)c3c2CCCC3)ccc1F)N1CCN(C(=O)N2CCCC2)CC1` [Example 576, 4-(4-fluoro-3-{[4-(pyrrolidine-1-ylcarbonyl)piperazin-1-yl]carbonyl}benzyl)-5,6,7,8-tetrahydrophthalazin-1(2H)-one], for which the inhibition constant Ki stood at 0.9 nM.

For the compound `O=C(c1cc(Cc2n[nH]c(=O)c3c2CCCC3)ccc1F)N1CCN(CCOc2ccccc2)CC1` [Example 577, 4-(4-fluoro-3-{[4-(2-phenoxyethyl)piperazin-1-yl]carbonyl}benzyl)-5,6,7,8-tetrahydrophthalazin-1(2H)-one], the Ki was determined as 3 nM.

For the compound `CN1CCN(CCNC(=O)c2cc(Cc3n[nH]c(=O)c4c3CCCC4)ccc2F)CC1` [Example 578, 2-fluoro-N-[2-(4-methylpiperazin-1-yl)ethyl]-5-[(4-oxo-3,4,5,6,7,8-hexahydrophthalazin-1-yl)methyl]benzamide], the Ki was 1.1 nM.

As for `CC(C)C(=O)N1CCN(C(=O)c2cc(Cc3n[nH]c(=O)c4c3CCCC4)ccc2F)CC1` [Example 579, 4-{4-fluoro-3-[(4-isobutyrylpiperazin-1-yl)carbonyl]benzyl}-5,6,7,8-tetrahydrophthalazin-1(2H)-one], the Ki was 1 nM.

`CCN1CCN(C(=O)c2cc(Cc3n[nH]c(=O)c4c3CCCC4)ccc2F)CC1` [Example 580, 4-{3-[(4-ethylpiperazin-1-yl)carbonyl]-4-fluorobenzyl}-5,6,7,8-tetrahydrophthalazin-1(2H)-one]: the Ki was found to be 1.8 nM.

Regarding `N[C@H]1CC(=O)N(c2cc(Cc3n[nH]c(=O)c4c3CCCC4)ccc2F)C1=O` [Example 583, (3S)-3-amino-1-{2-fluoro-5-[(4-oxo-3,4,5,6,7,8-hexahydrophthalazin-1-yl)methyl]phenyl}pyrrolidine-2,5-dione], the Ki stood at 2.3 nM.

For `CN1CCN(C(=O)Nc2cc(Cc3n[nH]c(=O)c4c3CCCC4)ccc2F)CC1` [Example 584, N-{2-fluoro-5-[(4-oxo-3,4,5,6,7,8-hexahydrophthalazin-1-yl)methyl]phenyl}-4-methylpiperazine-1-carboxamide], the Ki was found to be 68 nM.

For `CCC(=O)N1CCN(C(=O)c2cc(Cc3n[nH]c(=O)c4c3CCCC4)ccc2F)CC1` [Example 585, 4-{4-fluoro-3-[(4-propionylpiperazin-1-yl)carbonyl]benzyl}-5,6,7,8-tetrahydrophthalazin-1(2H)-one], the Ki turned out to be 1.3 nM.

On to `CCS(=O)(=O)N1CCN(C(=O)c2cc(Cc3n[nH]c(=O)c4c3CCCC4)ccc2F)CC1` [Example 586, 4-(3-{[4-(ethylsulfonyl)piperazin-1-yl]carbonyl}-4-fluorobenzyl)-5,6,7,8-tetrahydrophthalazin-1(2H)-one], for which the Ki was determined as 1.1 nM.

As to `CC(C)(C)C(=O)N1CCN(C(=O)c2cc(Cc3n[nH]c(=O)c4c3CCCC4)ccc2F)CC1` [Example 587, 4-(3-[4-(2,2-dimethylpropanoyl)piperazin-1-yl]carbonyl-4-fluorobenzyl)-5,6,7,8-tetrahydrophthalazin-1(2H)-one], the Ki worked out at 1 nM.

Turning to `O=C(COc1ccccc1)N1CCN(C(=O)c2cc(Cc3n[nH]c(=O)c4c3CCCC4)ccc2F)CC1` [Example 590, 4-(4-fluoro-3-{[4-(phenoxyacetyl)piperazin-1-yl]carbonyl}benzyl)-5,6,7,8-tetrahydrophthalazin-1(2H)-one], the Ki is 1.9 nM.

As to `O=C(COc1ccccc1)N1CCN(C(=O)c2cc(Cc3n[nH]c(=O)c4c3NCCC4)ccc2F)CC1` [Example 591, 8-(4-fluoro-3-{[4-(phenoxyacetyl)piperazin-1-yl]carbonyl}benzyl)-2,3,4,6-tetrahydropyrido[2,3-d]pyridazin-5(1H)-one], the Ki stood at 0.5 nM.

With `CC(C)(C)C(=O)N1CCN(C(=O)c2cc(Cc3n[nH]c(=O)c4c3NCCC4)ccc2F)CC1` [Example 593, 8-(3-{[4-(2,2-dimethylpropanoyl)piperazin-1-yl]carbonyl}-4-fluorobenzyl)-2,3,4,6-tetrahydropyrido[2,3-d]pyridazin-5(1H)-one], the Ki was found to be 1.3 nM.

These data come from patent US9283222B2 (priority 2006, dated 2016).
